Data as given in ChEMBL document CHEMBL1201862, “PubChem BioAssay data set” (2004).
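Dose response: 5 concentrations. Exposure: 48 h. Format: 96-well plates. Endpoint: linear interpolation; highest concentration if not reached. Here, GI50 denotes the concentration required for 50% inhibition of growth.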 Active and inactive are the calls of the source. Rule as the data show it: active = GI50 up to about 1.1 µM and inactive = higher.

Assays:
Assay in all cases: inhibition of tumour cell growth, NCI panel, 48 h
SF-539 = system: SF-539
BT-549 = system: BT-549
CCRF-CEM = system: CCRF-CEM
SNB-75 = system: SNB-75
DU-145 = system: DU-145
OVCAR-4 = system: OVCAR-4
UACC-62 = system: UACC-62
SF-268 = system: SF-268
SR = system: SR
A498 = system: A498
TK-10 = system: TK-10
MOLT-4 = system: MOLT-4
MDA-MB-231 = system: MDA-MB-231
OVCAR-3 = system: OVCAR-3
NCI-H460 = system: NCI-H460
UO-31 = system: UO-31
Malme-3M = system: Malme-3M
NCI-H23 = system: NCI-H23
NCI-H522 = system: NCI-H522
PC-3 = system: PC-3
CAKI-1 = system: CAKI-1
T47D = system: T47D
UACC-257 = system: UACC-257
NCI-H226 = system: NCI-H226
HCT-116 = system: HCT-116
SK-MEL-28 = system: SK-MEL-28
COLO 205 = system: COLO 205
LOX IMVI = system: LOX IMVI
RXF 393 = system: RXF 393
IGROV-1 = system: IGROV-1
ACHN = system: ACHN
RPMI-8226 = system: RPMI-8226
786-0 = system: 786-0
SK-OV-3 = system: SK-OV-3
SN12C = system: SN12C
Hs-578T = system: Hs-578T
SW-620 = system: SW-620
SF-295 = system: SF-295
M14 = system: M14
A549 = system: A549
HOP-92 = system: HOP-92
SK-MEL-5 = system: SK-MEL-5
MCF7 = system: MCF7
OVCAR-5 = system: OVCAR-5
K562 = system: K562
HCC 2998 = system: HCC 2998
HT-29 = system: HT-29
EKVX = system: EKVX
KM12 = system: KM12
MDA-MB-435 = system: MDA-MB-435
OVCAR-8 = system: OVCAR-8
NCI/ADR-RES = system: NCI/ADR-RES
HOP-62 = system: HOP-62
U-251 = system: U-251
HCT-15 = system: HCT-15
SNB-19 = system: SNB-19
SK-MEL-2 = system: SK-MEL-2
HL-60 = system: HL-60

**Q.** `C=CCN1C(=O)/C(=C/c2ccccc2)NC1=S` was tested. Which GI50 (SF-539) did it give?
**A.** The GI50 was > 100 µM (inactive).

**Q.** And the GI50 (BT-549)?
**A.** The GI50 was > 100 µM (inactive).

**Q.** What about the GI50 (CCRF-CEM) of the same molecule?
**A.** Its GI50 is > 100 µM (inactive).

**Q.** What about the GI50 (SNB-75) of the same molecule?
**A.** The GI50 was > 100 µM (inactive).

**Q.** What about the GI50 (DU-145) of the same molecule?
**A.** Its GI50 is > 100 µM (inactive).

**Q.** What about the GI50 (OVCAR-4) of the same molecule?
**A.** Its GI50 is > 100 µM (inactive).

**Q.** And the GI50 (UACC-62)?
**A.** The GI50 was > 100 µM (inactive).

**Q.** And the GI50 (SF-268)?
**A.** Its GI50 is > 100 µM (inactive).

**Q.** What about the GI50 (SR) of the same molecule?
**A.** The GI50 was > 100 µM (inactive).

**Q.** And the GI50 (A498)?
**A.** The GI50 was 38.3 µM (inactive).

**Q.** What about the GI50 (TK-10) of the same molecule?
**A.** Its GI50 is > 100 µM (inactive).

**Q.** What about the GI50 (MOLT-4) of the same molecule?
**A.** Its GI50 is 61.7 µM (inactive).

**Q.** And the GI50 (MDA-MB-231)?
**A.** The GI50 was > 100 µM (inactive).

**Q.** And the GI50 (OVCAR-3)?
**A.** Its GI50 is > 100 µM (inactive).

**Q.** And the GI50 (NCI-H460)?
**A.** The GI50 was > 100 µM (inactive).

**Q.** What about the GI50 (UO-31) of the same molecule?
**A.** The GI50 was > 100 µM (inactive).

**Q.** What about the GI50 (Malme-3M) of the same molecule?
**A.** The GI50 was > 100 µM (inactive).

**Q.** And the GI50 (NCI-H23)?
**A.** Its GI50 is > 100 µM (inactive).

**Q.** What about the GI50 (NCI-H522) of the same molecule?
**A.** Its GI50 is 94.6 µM (inactive).

**Q.** What about the GI50 (PC-3) of the same molecule?
**A.** The GI50 was > 100 µM (inactive).

**Q.** What about the GI50 (CAKI-1) of the same molecule?
**A.** Its GI50 is > 100 µM (inactive).

**Q.** What about the GI50 (T47D) of the same molecule?
**A.** Its GI50 is > 100 µM (inactive).

**Q.** And the GI50 (UACC-257)?
**A.** The GI50 was 74.1 µM (inactive).

**Q.** What about the GI50 (NCI-H226) of the same molecule?
**A.** The GI50 was 15.6 µM (inactive).

**Q.** What about the GI50 (HCT-116) of the same molecule?
**A.** The GI50 was > 100 µM (inactive).

**Q.** And the GI50 (SK-MEL-28)?
**A.** Its GI50 is > 100 µM (inactive).

**Q.** What about the GI50 (COLO 205) of the same molecule?
**A.** The GI50 was > 100 µM (inactive).

**Q.** What about the GI50 (LOX IMVI) of the same molecule?
**A.** Its GI50 is > 100 µM (inactive).

**Q.** And the GI50 (RXF 393)?
**A.** Its GI50 is > 100 µM (inactive).

**Q.** What about the GI50 (IGROV-1) of the same molecule?
**A.** Its GI50 is > 100 µM (inactive).

**Q.** What about the GI50 (ACHN) of the same molecule?
**A.** Its GI50 is > 100 µM (inactive).

**Q.** What about the GI50 (RPMI-8226) of the same molecule?
**A.** The GI50 was 48.5 µM (inactive).

**Q.** What about the GI50 (786-0) of the same molecule?
**A.** The GI50 was > 100 µM (inactive).

**Q.** And the GI50 (SK-OV-3)?
**A.** The GI50 was > 100 µM (inactive).

**Q.** What about the GI50 (SN12C) of the same molecule?
**A.** The GI50 was > 100 µM (inactive).

**Q.** What about the GI50 (Hs-578T) of the same molecule?
**A.** The GI50 was > 100 µM (inactive).

**Q.** And the GI50 (SW-620)?
**A.** The GI50 was > 100 µM (inactive).

**Q.** And the GI50 (SF-295)?
**A.** The GI50 was > 100 µM (inactive).

**Q.** And the GI50 (M14)?
**A.** Its GI50 is > 100 µM (inactive).

**Q.** And the GI50 (A549)?
**A.** The GI50 was 88.9 µM (inactive).

**Q.** What about the GI50 (HOP-92) of the same molecule?
**A.** The GI50 was > 100 µM (inactive).

**Q.** And the GI50 (SK-MEL-5)?
**A.** Its GI50 is 65.5 µM (inactive).

**Q.** And the GI50 (MCF7)?
**A.** Its GI50 is > 100 µM (inactive).

**Q.** What about the GI50 (OVCAR-5) of the same molecule?
**A.** The GI50 was > 100 µM (inactive).

**Q.** And the GI50 (K562)?
**A.** The GI50 was 84.5 µM (inactive).

**Q.** What about the GI50 (HCC 2998) of the same molecule?
**A.** Its GI50 is > 100 µM (inactive).

**Q.** What about the GI50 (HT-29) of the same molecule?
**A.** The GI50 was > 100 µM (inactive).

**Q.** And the GI50 (EKVX)?
**A.** Its GI50 is 91 µM (inactive).

**Q.** What about the GI50 (KM12) of the same molecule?
**A.** Its GI50 is > 100 µM (inactive).

**Q.** And the GI50 (MDA-MB-435)?
**A.** The GI50 was > 100 µM (inactive).

**Q.** And the GI50 (OVCAR-8)?
**A.** Its GI50 is > 100 µM (inactive).

**Q.** And the GI50 (NCI/ADR-RES)?
**A.** The GI50 was > 100 µM (inactive).

**Q.** And the GI50 (HOP-62)?
**A.** The GI50 was > 100 µM (inactive).

**Q.** And the GI50 (U-251)?
**A.** Its GI50 is > 100 µM (inactive).

**Q.** And the GI50 (HCT-15)?
**A.** The GI50 was greater than 100 µM.

**Q.** What about the GI50 (SNB-19) of the same molecule?
**A.** Its GI50 is > 100 µM (inactive).

**Q.** What about the GI50 (SK-MEL-2) of the same molecule?
**A.** The GI50 was > 100 µM (inactive).

**Q.** What about the GI50 (HL-60) of the same molecule?
**A.** Its GI50 is 43.5 µM (inactive).
